The test system of data set [1] is HCV. Briefly: Dose selection: antiviral response and Emax PK/PD modeling. It is filed as in vivo, Hepatitis C virus. The procedure:
The sofosbuvir dose selected for the tablet formulation is 400 mg once daily. Support for the 400 mg sofosbuvir dose can be derived from Emax PK/PD modeling with early virological and human exposure data which also supports the selection of a 400 mg sofosbuvir dose over others tested.
The mean sofosbuvir major metabolite AUCtau for the 400 mg sofosbuvir dose is associated with approximately 77% of the maximal HCV RNA change from baseline achievable as determined by this model, a value which is on the cusp of the plateau of the exposure-response sigmoidal curve. […] Therefore, given that sofosbuvir exposure with 200 mg tablets appears dose-proportional with single doses up to 1200 mg, doses below 400 mg are expected to yield considerable reductions in the magnitude of HCV RNA change from baseline.
The sofosbuvir dose of 400 mg once daily was associated with higher SVR rates in genotype 1 HCV infected patients as compared to the 200 mg once daily dose when given in conjunction with additional HCV therapeutics for 24 weeks. Safety and tolerability appeared similar across both dose levels. In addition, when sofosbuvir 400 mg once daily plus other HCV therapeutics were given to genotype 2 or 3 HCV infected patients, 100% SVR24 was observed.
The maximum median HCV RNA log 10 reduction was 3 or greater for all cohorts dosed with ≥3 mg of ledipasvir. […] Therefore, 30 mg and 90 mg of ledipasvir were selected as the dose for the formulations described herein.
Therefore, the 90 mg dose of ledipasvir may confer a greater antiviral coverage that prevents viral breakthrough.

The nature of data set [2]: PK of Sofosbuvir/Ledipasvir tablets fasted or with meals.
Data set [3] in a line: clinical. The conditions noted are these: in vivo; for AUC(0-inf) / AUC(0-t) / Cmax: po, plasma analyte, Sofosbuvir/Ledipasvir Tablet, n = 29, mean (% CV); for AUC(0-inf): AUCinf; for AUC(0-t): AUClast.
Data set [4] in a line: PK of sofosbuvir alone or with Compound E (and ledipasvir). It is filed as in vivo. Conditions: for AUC(0-inf) / AUC(0-t) / Cmax: human, in vivo, n = 18, mean (% CV). The procedure: Subjects (n=18) received single doses of sofosbuvir (400 mg) alone or in combination with Compound E (500 mg QD) under fed conditions.
Data set [5] is described as follows: Compatibility/stability of sofosbuvir and ledipasvir:copovidone solid dispersion blend. Type of data set: physicochemical. Conditions: for Strength / Total Impurity Content: blend pellets, open glass vials. The procedure: The compatibility of sofosbuvir anhydrous crystalline drug substance was evaluated with the ledipasvir:copovidone solid dispersion. A blend of the sofosbuvir and ledipasvir:copovidone (1:1) solid dispersion was prepared at a ratio representative of the final 400 mg sofosbuvir/90 mg ledipasvir tablets. […]

Data set [6] can be described thus: Pharmacokinetics of sofosbuvir and ledipasvir alone or in combination. Type of data set: in vivo. Conditions: for AUC(0-inf) / AUC(0-t) / Cmax: po, plasma analyte, n = 17, mean (% CV).
Data set [7] can be described thus: Aqueous solubility with 0.1% w/w surfactants and polymers; dissolution behavior of forms. It is filed as physicochemical. The conditions noted are these: aqueous buffered solutions. Here is the method: Excess solid was added to aqueous buffered solutions; samples were withdrawn at predetermined intervals (2, 5, 8, 10, 15, 20, 30, 45, 60 minutes, and 24 hours), filtered through regenerated cellulose filters, and diluted for concentration measurement by the HPLC-UV method.

A short description of data set [8]: pH-solubility profile and solubility in simulated intestinal media. The conditions noted are these: aqueous, neutral form (pH>5), room temperature. It is filed as physicochemical. Here is the method: Excess solid ledipasvir was added to a range of pH-adjusted aqueous solutions (titrated with HCl or NaOH) and stirred for 48 hours at room temperature. The suspensions were then filtered through regenerated cellulose syringe filters. The pH value of the supernatant was measured, and the supernatant was diluted as appropriate with 50:50 H2O+0.1% TFA:ACN and assayed for ledipasvir content by the HPLC-UV method.
Solubility of ledipasvir amorphous free base was assessed in three types of simulated intestinal fluids at pH 6.5 or pH 5.0; and simulated intestinal bile salt and lecithin mixture (SIBLM), pH 6.4. Excess solid ledipasvir was added to the respective SIFs and stirred for 48 hours at room temperature. The resulting suspensions were then filtered through regenerated cellulose syringe filters. The supernatant was diluted as appropriate with 50:50 H2O+0.1% TFA:ACN and assayed for ledipasvir content by the HPLC-UV method.

The mark [9] stands for this setting: SOF + Compound E + ledipasvir vs SOF alone.
Setting [10] is: po, 400 mg, SOF + Compound E (500 mg QD), fed.
[11] abbreviates: po, 400 mg, SOF alone (400 mg single dose, fed).
[12] abbreviates: Sofosbuvir + Ledipasvir vs single agent alone.
Setting [13] is: in vivo, Sofosbuvir + Ledipasvir.
[14] abbreviates: listed as Ledipasvir crystalline free base Form III.

Each structure is given as a SMILES string. A value given as a limit tells only on which side of the number the result lay.

Consider `CC(C)OC(=O)[C@H](C)N[P@](=O)(OC[C@H]1O[C@@H](n2ccc(=O)[nH]c2=O)[C@](C)(F)[C@@H]1O)Oc1ccccc1` [Sofosbuvir, (S)-isopropyl 2-(((S)-(((2R,3R,4R,5R)-5-(2,4-dioxo-3,4-dihydropyrimidin-1(2H)-yl)-4-fluoro-3-hydroxy-4-methyltetrahydrofuran-2-yl)methoxy)(phenoxy)phosphoryl)amino)propanoate], for which, in data set [1] (400 mg dose, mean major metabolite AUCtau), the “share of the maximal HCV RNA change from baseline achievable (Emax PK/PD model)” value is “approximately 77%”. The SVR24 in data set [1] (400 mg once daily plus other HCV therapeutics, genotype 2 or 3 HCV infected patients) was found to be 100%. The “% GMR (90% CI) [Moderate-Fat/Fasted] of AUCinf” value in data set [2] (Sofosbuvir/Ledipasvir Tablet) was 195 (176, 216) %. Further, the “% GMR (90% CI) [Moderate-Fat/Fasted] of AUClast” value in data set [2] (Sofosbuvir/Ledipasvir Tablet) is recorded as 195 (176, 216) %. Besides, the “% GMR (90% CI) [Moderate-Fat/Fasted] of Cmax” value in data set [2] (Sofosbuvir/Ledipasvir Tablet) is on record as 126 (109, 147) %. Moreover, the “GMR (90% CI) [High-Fat/Fasted] of AUCinf” value in data set [2] (Sofosbuvir/Ledipasvir Tablet) is 179 (162, 198) %. In data set [2] (Sofosbuvir/Ledipasvir Tablet), the “GMR (90% CI) [High-Fat/Fasted] of AUClast” value is listed as 178 (161, 198) %. Moreover, the “GMR (90% CI) [High-Fat/Fasted] of Cmax” value in data set [2] (Sofosbuvir/Ledipasvir Tablet) is given as 115 (99.0, 134) %. For the same compound, the “median Tmax” value in data set [2] (sofosbuvir/ledipasvir composition, with food) came out at 2.00 h. Further, in data set [3], the time of peak concentration (Tmax) (in general, the time from dosing to the highest level) amounted to 1 h. The AUC(0-inf) (in general, total exposure, with the tail of the curve extrapolated) in data set [3] (Fasted) was found to be 1520 ng·h/mL; in data set [3] (High-Calorie/High-Fat Meal) it was 2570 ng·h/mL; in data set [3] (Moderate-Fat Meal) it was 2860 ng·h/mL; in data set [4] (SOF + Compound E + ledipasvir), 2560 ng·h/mL; in data set [4] (setting [10]), 1150 ng·h/mL; in data set [4] (setting [11]), 921 ng·h/mL. Moreover, the AUC(0-inf) in data set [6] (setting [13]) was found to be 1750 ng·h/mL; in data set [6] (in vivo, Sofosbuvir alone), 794 ng·h/mL. Besides, the AUC(0-t) (usually exposure summed from dosing to a finite time, without extrapolation to infinity) in data set [3] (Fasted) worked out at 1520 ng·h/mL; in data set [3] (High-Calorie/High-Fat Meal), 2550 ng·h/mL; in data set [3] (Moderate-Fat Meal), 2850 ng·h/mL; in data set [4] (SOF + Compound E + ledipasvir) it was 2550 ng·h/mL; in data set [4] (setting [10]), 1140 ng·h/mL; in data set [4] (setting [11]) it was 908 ng·h/mL. The area under the curve AUC(0-t) in data set [6] (setting [13]) is 1740 ng·h/mL; in data set [6] (in vivo, Sofosbuvir alone), 788 ng·h/mL. In addition, the maximum concentration (Cmax) (as a rule, the highest concentration seen after dosing) in data set [3] (Fasted) was 1240 ng/mL; in data set [3] (High-Calorie/High-Fat Meal), 1350 ng/mL; in data set [3] (Moderate-Fat Meal), 1520 ng/mL; in data set [4] (SOF + Compound E + ledipasvir), 1260 ng/mL; in data set [4] (setting [10]), 587 ng/mL; in data set [4] (setting [11]), 515 ng/mL. The Cmax in data set [6] (setting [13]) is 1870 ng/mL; in data set [6] (in vivo, Sofosbuvir alone), 929 ng/mL. Further, the “% GMR of AUCinf” value in data set [4] (setting [9]) is on record as 297%; in data set [4] (SOF + Compound E vs SOF alone), 135%. Further, the “% GMR of AUClast” value in data set [4] (setting [9]) was determined as 301%; in data set [4] (SOF + Compound E vs SOF alone), 135%. For the same compound, the “% GMR of Cmax” value was 283% in data set [4] (setting [9]) and 130% in data set [4] (SOF + Compound E vs SOF alone). Also, the “degradation in blend with the other active” value in data set [5] (40° C./75% RH and 60° C./ambient humidity, two and four weeks) is “no degradation was observed”. For the same compound, the Strength in data set [5] (45° C./75% RH, 0 weeks) is on record as 102.9%; in data set [5] (45° C./75% RH, 2 weeks), 101.6%; in data set [5] (45° C./75% RH, 4 weeks), 100.5%; in data set [5] (60° C., 0 weeks), 102.9%; in data set [5] (60° C., 1 week) it was 102.4%; in data set [5] (60° C., 2 weeks), 103.2%. This compound registered a Strength in data set [5] (60° C., 4 weeks) of 102.8%. In addition, the “Total Impurity Content” value in data set [5] (45° C./75% RH, 0 weeks) turned out to be 0.4%; in data set [5] (45° C./75% RH, 2 weeks) it was 0.3%; in data set [5] (45° C./75% RH, 4 weeks), 0.2%; in data set [5] (60° C., 0 weeks), 0.4%; in data set [5] (60° C., 1 week), 0.3%; in data set [5] (60° C., 2 weeks), 0.3%. Moreover, the “Total Impurity Content” value in data set [5] (60° C., 4 weeks) turned out to be 0.2%. For the same compound, the “AUC with ledipasvir as share of total drug related material (DRM) AUC” value in data set [6] (DRM = sum of AUCs of analytes corrected for molecular weight) is given as approximately 5.7%. Moreover, the “% GMR (90% CI) of AUCinf” value in data set [6] (setting [12]) is listed as 229 (191, 276) %. The “% GMR (90% CI) of AUClast” value in data set [6] (setting [12]) was 230 (191, 277) %. For the same compound, in data set [6] (setting [12]), the “% GMR (90% CI) of Cmax” value is reported as 221 (176, 278) %. Besides, the “increase of plasma exposure by ledipasvir” value in data set [6] (in vivo) is approximately 2.3 fold.
Turning to `COC(=O)N[C@H](C(=O)N1CC2(CC2)C[C@H]1c1ncc(-c2ccc3c(c2)C(F)(F)c2cc(-c4ccc5nc([C@@H]6[C@H]7CC[C@H](C7)N6C(=O)[C@@H](NC(=O)OC)C(C)C)[nH]c5c4)ccc2-3)[nH]1)C(C)C` [Ledipasvir-02], the “dissolution behavior relative to other ledipasvir forms” value in data set [7] is listed as “improved relative to all free base forms”.
For `COC(=O)N[C@H](C(=O)N1CC2(CC2)C[C@H]1c1ncc(-c2ccc3c(c2)C(F)(F)c2cc(-c4ccc5nc([C@@H]6[C@H]7CC[C@H](C7)N6C(=O)[C@@H](NC(=O)OC)C(C)C)[nH]c5c4)ccc2-3)[nH]1)C(C)C` [Ledipasvir-03], the “dissolution behavior relative to other ledipasvir forms” value in data set [7] is “slowest dissolution of all forms tested”. Besides, the “intrinsic solubility (S0)” value in data set [8] was less than 0.1 µg/mL.
Regarding `COC(=O)N[C@H](C(=O)N1CC2(CC2)C[C@H]1c1ncc(-c2ccc3c(c2)C(F)(F)c2cc(-c4ccc5nc([C@@H]6[C@H]7CC[C@H](C7)N6C(=O)[C@@H](NC(=O)OC)C(C)C)[nH]c5c4)ccc2-3)[nH]1)C(C)C` [Ledipasvir Form III], the “dissolution behavior relative to other ledipasvir forms” value in data set [7] (setting [14]) is given as “dissolves more slowly than the amorphous free base, but faster than ledipasvir-03”. Also, the “intrinsic solubility (S0)” value in data set [8] (setting [14]) is less than 0.1 µg/mL.

These data come from US10039779B2, “Combination formulation of two antiviral compounds” (priority 2013, dated 2018).
